Assay results published in patent US5047419A, “Photodynamic therapy of glioma or mammary carcinoma using seleno- or telluropyrylium salts” (Eastman Kodak Company, priority 1988, dated 1991).

Legend:
[1] = Quantum efficiency of singlet oxygen generation in air-saturated solution; assay type: physicochemical
Text: (§1) The ability of the dyes of this invention to function as a cancer-treating agent is in part a reflection of the ability of the dye to generate singlet oxygen in air-saturated solution. (As used herein, "air-saturated solution" means a solution of dye exposed to the atmosphere.) In studying a variety of chalcogenopyrylium dyes, only those dyes containing a selenium or tellurium atom show any appreciable generation of singlet oxygen upon irradiation. Fortuitously, selenopyrylium and telluropyrylium dyes have absorption maxima that are shifted to the red relative to their pyrylium and thiopyrylium analogues. That is, not only are these dyes effective in killing cancer cells because of their high quantum efficiency, but also they generally operate at the most preferred wavelengths, namely those of 700 nm or longer. Table III contains examples of chalcogenopyrylium dyes, their quantum efficiencies for singlet oxygen generation, and their absorption maxima. (In this Table, Ph=Phenyl, Me=Methyl, and t-Bu=tertiary butyl.)

[2] = Absorption maxima (λmax) of chalcogenopyrylium dyes; assay type: physicochemical
Text: as §1

[3] = Distribution of Dye 1 in organ tissues of glioma (RT-1) bearing rats; assay type: in vivo, rat
Experimental: Dye 1 of Table 1 was delivered to glioma sites in rat brains, such sites having been achieved by implanting RT-1 rat glioma cancer cells into the brains of twenty-four 400 g rats. Stock solutions of Dye 1 at 1 mM concentration were prepared by dissolving the dye in a minimal amount of 95% ethanol and diluting with phosphate buffered saline to 1 mM. RT-1 glioma cells were injected into the cortex of the rats at day 0. Treatment with the dye was done at day 12. A quantity of the stock solution sufficient to deliver 1.5 mg (2.5 μmol) of Dye 1 per rat (approximately2 mL) was delivered by femoral artery or carotid artery injection. The animals were sacrificed at the indicated times, the indicated tissues were removed, and frozen until the amount of dye was quantified. The dye content of the indicated tissues was examined spectroscopically by homogenizing the tissues, doing a lipid extraction of the homogenate, and measuring the optical density of the extract at a constant volume at the wavelength of the dye. Alternatively, a tritium labeled sample of Dye 1 was employed in the injection and the tissue homogenate was placed directly in a scintillation vial. The dye content was then measured by tritium count. […] (The values listed at times of 0.25 and 1.0 h after injection are comparative examples only, since there is either too high a concentration present in the brain, or too little in the tumor.)

[4] = tested on: RT-1 glioma cells; assay: Survival study of rats implanted with RT-1 glioma cells; assay type: in vivo, rat; conditions: for Mean Survival Time: 2.5 μmol femoral artery
Experimental: A survival study was conducted using Dye 1 with 400 g rats implanted with RT-1 glioma cells at day 0 and treated with 2.5 μmol of dye delivered by femoral artery injection on day 12. The treated animals were irradiated one hour post injection using a quartz fiber optic with a diffusion tip with the dye laser described earlier as the light source. Total irradiation energy was 50 J cm^-2 at 785 nm. Three control groups were used: untreated animals, animals treated with dye only, and animals treated with light only. [The number of rats per group were: 10 for laser and dye treatment, 6 for control (no treatment), 14 for dye only and 6 for laser only.] Mean survival time data are compiled in Table VIII.

[5] = Distribution of Dye 5 in organ tissues of rats bearing an implanted mammarian tumor; assay type: in vivo, rat; conditions: peritoneum, prep L, optical density
[6] = carotid artery, 0.33 h, prep H, tritium counts
[7] = femoral artery, 0.25 h, prep D, tritium counts
[8] = femoral artery, 0.50 h, prep D, tritium counts
[9] = femoral artery, 1.0 h, prep (L), optical density (B)
[10] = femoral artery, 1.0 h, prep D, tritium counts

Q: What does the source list for CC(C)(C)C1=CC(=CC=Cc2cc(C(C)(C)C)[s+]c(C(C)(C)C)c2)C=C(C(C)(C)C)S1.F[P-](F)(F)(F)(F)F [C.E. 1, 2,6-Di-t-butyl-4-[3-(2,6-di-t-butyl-4H-thiopyran-4-ylidene)-1-propen-1-yl]thiopyrylium hexafluorophosphate, reference compound]?
A: Quantum efficiency of singlet oxygen generation Φ(1O2) ([1]; air-saturated solution): ≤ 0.001; Absorption maximum λmax ([2]; H2O): 660 nm

Q: For CC(C)(C)C1=CC(=CC=Cc2cc(C(C)(C)C)[o+]c(C(C)(C)C)c2)C=C(C(C)(C)C)S1.F[P-](F)(F)(F)(F)F [C.E. 2, 2,6-Di-t-butyl-4-[3-(2,6-di-t-butyl-4H-thiopyran-4-ylidene)-1-propen-1-yl]pyrylium hexafluorophosphate, reference compound], which “Quantum efficiency of singlet oxygen generation Φ(1O2)” value (shortened to “Quantum efficiency”) ([1]; air-saturated solution) is on record?
A: ≤ 0.001

Q: What about the “Absorption maximum λmax” value ([2]; H2O) of the same compound?
A: 630 nm

Q: With CC(C)(C)C1=CC(=CC=Cc2cc(C(C)(C)C)[se+]c(C(C)(C)C)c2)C=C(C(C)(C)C)[Te]1.[Cl-] [Dye 1, 2,6-Di-t-butyl-4-[3-(2,6-di-t-butyl-4H-telluropyran-4-ylidene)-1-propen-1-yl]selenopyrylium chloride] as the compound, how does the “nmol Dye 1/g of tissue, Brain” value [3, 6] read?
A: 0.9 nmol Dye 1/g of tissue

Q: And the “nmol Dye 1/g of tissue, Tumor” value [3, 6]?
A: 16.0 nmol Dye 1/g of tissue

Q: And the “nmol Dye 1/g of tissue, Liver” value ([3]; femoral artery, 0.25 h, prep (H), tritium counts)?
A: 5.4 nmol Dye 1/g of tissue

Q: And the “nmol Dye 1/g of tissue, Brain” value [3, 7]?
A: 46 nmol Dye 1/g of tissue

Q: What about the “nmol Dye 1/g of tissue, Heart” value [3, 7] of the same compound?
A: 7.4 nmol Dye 1/g of tissue

Q: What about the “nmol Dye 1/g of tissue, Liver” value [3, 7] of the same compound?
A: 9.1 nmol Dye 1/g of tissue

Q: What about the “nmol Dye 1/g of tissue, Tumor” value [3, 7] of the same compound?
A: 45 nmol Dye 1/g of tissue

Q: And the “nmol Dye 1/g of tissue, Brain” value [3, 8]?
A: 18.0 nmol Dye 1/g of tissue

Q: And the “nmol Dye 1/g of tissue, Liver” value [3, 8]?
A: 17.0 nmol Dye 1/g of tissue

Q: What about the “nmol Dye 1/g of tissue, Tumor” value [3, 8] of the same compound?
A: 32.0 nmol Dye 1/g of tissue

Q: What about the “nmol Dye 1/g of tissue, Heart” value [3, 9] of the same compound?
A: 1.1 nmol Dye 1/g of tissue

Q: And the “nmol Dye 1/g of tissue, Liver” value [3, 9]?
A: 3.3 nmol Dye 1/g of tissue

Q: And the “nmol Dye 1/g of tissue, Brain” value [3, 10]?
A: 4.7 nmol Dye 1/g of tissue

Q: And the “nmol Dye 1/g of tissue, Heart” value [3, 10]?
A: 1.3 nmol Dye 1/g of tissue

Q: And the “nmol Dye 1/g of tissue, Liver” value [3, 10]?
A: 13.2 nmol Dye 1/g of tissue

Q: What about the “passage of the blood-brain barrier” value ([3]; rat, arterial injection) of the same compound?
A: appears to pass the blood-brain barrier

Q: What about the “concentrations of the dye in the tumor mass” value ([3]; short time periods following injection) of the same compound?
A: reasonably high concentrations

Q: And the “survival relative to animals in the control groups” value ([4]; Dye 1 and light)?
A: prolonged survival

Q: And the “Proportion of Animals Surviving” value ([4]; Dye Only, day ≥15)?
A: 0.50

Q: What about the “Proportion of Animals Surviving” value ([4]; Dye Only, day ≥19) of the same compound?
A: 0.43

Q: What about the “Proportion of Animals Surviving” value ([4]; Dye Only, day ≥22) of the same compound?
A: 0.43

Q: And the “Proportion of Animals Surviving” value ([4]; Dye Only, day ≥26)?
A: 0.43

Q: What about the “Proportion of Animals Surviving” value ([4]; Dye Only, day ≥33) of the same compound?
A: 0.43

Q: And the “Proportion of Animals Surviving” value ([4]; Dye Only, day ≥40)?
A: 0.43

Q: And the “Proportion of Animals Surviving” value ([4]; Dye Only, day ≥47)?
A: 0.00

Q: And the “Mean Survival Time” value ([4]; Dye Only)?
A: 27.9 days

Q: And the “Proportion of Animals Surviving” value ([4]; Laser + Dye, day ≥15)?
A: 0.70

Q: What about the “Proportion of Animals Surviving” value ([4]; Laser + Dye, day ≥19) of the same compound?
A: 0.70

Q: And the “Proportion of Animals Surviving” value ([4]; Laser + Dye, day ≥22)?
A: 0.70

Q: What about the “Proportion of Animals Surviving” value ([4]; Laser + Dye, day ≥26) of the same compound?
A: 0.60

Q: And the “Proportion of Animals Surviving” value ([4]; Laser + Dye, day ≥33)?
A: 0.50

Q: And the “Proportion of Animals Surviving” value ([4]; Laser + Dye, day ≥40)?
A: 0.50

Q: What about the “Proportion of Animals Surviving” value ([4]; Laser + Dye, day ≥47) of the same compound?
A: 0.30

Q: What about the “Mean Survival Time” value ([4]; Laser + Dye, 50 J cm^-2 at 785 nm) of the same compound?
A: 32.8 days

Q: What about the animals still alive ([4]; fully treated (laser + dye), from day 47 on) of the same compound?
A: 30%

Q: Which “Quantum efficiency” value ([1]; air-saturated solution) does the source give for CC(C)(C)C1=CC(=CC=Cc2cc(C(C)(C)C)[se+]c(C(C)(C)C)c2)C=C(C(C)(C)C)[Se]1 [Dye 2] here?
A: 0.014

Q: What about the “Absorption maximum λmax” value ([2]; H2O) of the same compound?
A: 730 nm

Q: With CC(C)(C)C1=CC(=CC=Cc2cc(C(C)(C)C)[s+]c(C(C)(C)C)c2)C=C(C(C)(C)C)[Te]1 [Dye 3] as the compound, how does the “Quantum efficiency” value ([1]; air-saturated solution) read?
A: 0.07

Q: And the “Absorption maximum λmax” value ([2]; H2O)?
A: 745 nm

Q: With CC(C)(C)C1=CC(=CC=Cc2cc(C(C)(C)C)[o+]c(C(C)(C)C)c2)C=C(C(C)(C)C)[Te]1.[O-][Cl+3]([O-])([O-])[O-] [Dye 5, 2,6-Di-t-butyl-4-[3-(2,6-di-t-butyl-4H-telluropyran-4-ylidene)-1-propen-1-yl]pyrylium perchlorate] as the compound, how does the “nmol Dye 1/g of tissue, Heart” value ([5]; 2 h) read?
A: 1.3 nmol Dye 1/g of tissue

Q: And the “nmol Dye 1/g of tissue, Kidney” value ([5]; 2 h)?
A: ≤ 0.5 nmol Dye 1/g of tissue

Q: What about the “nmol Dye 1/g of tissue, Liver” value ([5]; 2 h) of the same compound?
A: 4.1 nmol Dye 1/g of tissue

Q: What about the “nmol Dye 1/g of tissue, Tumor” value ([5]; 2 h) of the same compound?
A: 5.5 nmol Dye 1/g of tissue

Q: What about the “nmol Dye 1/g of tissue, Heart” value ([5]; 4 h) of the same compound?
A: ≤ 0.5 nmol Dye 1/g of tissue

Q: And the “nmol Dye 1/g of tissue, Kidney” value ([5]; 4 h)?
A: ≤ 0.5 nmol Dye 1/g of tissue

Q: What about the “nmol Dye 1/g of tissue, Liver” value ([5]; 4 h) of the same compound?
A: 3.8 nmol Dye 1/g of tissue

Q: And the “nmol Dye 1/g of tissue, Tumor” value ([5]; 4 h)?
A: 3.3 nmol Dye 1/g of tissue

Q: For CC(C=Cc1cc(C(C)(C)C)[te+]c(C(C)(C)C)c1)=C1C=C(C(C)(C)C)[Se]C(C(C)(C)C)=C1 [Dye 6], which “Quantum efficiency” value ([1]; air-saturated solution) is on record?
A: 0.01

Q: What about the “Absorption maximum λmax” value ([2]; CH2Cl2) of the same compound?
A: 803 nm

Q: What does the source list for CC(=CC(C)=C1C=C(C(C)(C)C)[Se]C(C(C)(C)C)=C1)c1cc(C(C)(C)C)[se+]c(C(C)(C)C)c1 [Dye 7]?
A: Quantum efficiency of singlet oxygen generation Φ(1O2) ([1]; air-saturated solution): 0.005; Absorption maximum λmax ([2]; MeOH): 790 nm

Q: Which results are given for CC(C)(C)C1=CC(=CC=Cc2cc(C(C)(C)C)[s+]c(C(C)(C)C)c2)C=C(C(C)(C)C)[Se]1 [Dye 8]?
A: Quantum efficiency of singlet oxygen generation Φ(1O2) ([1]; air-saturated solution): 0.008; Absorption maximum λmax ([2]; H2O): 700 nm

Q: With C(=C1C=C(c2ccccc2)[Te]C(c2ccccc2)=C1)c1cc(-c2ccccc2)[te+]c(-c2ccccc2)c1 [Dye 10] as the compound, how does the “Quantum efficiency” value ([1]; air-saturated solution) read?
A: 0.08

Q: And the “Absorption maximum λmax” value ([2]; MeOH)?
A: 760 nm

Q: Which “Quantum efficiency” value ([1]; air-saturated solution) does the source give for CC(=C1C=C(c2ccccc2)[Te]C(c2ccccc2)=C1)c1cc(-c2ccccc2)[te+]c(-c2ccccc2)c1 [Dye 11] here?
A: 0.01

Q: And the “Absorption maximum λmax” value ([2]; CH2Cl2)?
A: 843 nm

Q: Which “Quantum efficiency” value ([1]; air-saturated solution) does the source give for CC(=C1C=C(C(C)(C)C)[Te]C(C(C)(C)C)=C1)c1cc(C(C)(C)C)[te+]c(C(C)(C)C)c1 [Dye 13] here?
A: 0.005

Q: What about the “Absorption maximum λmax” value ([2]; H2O) of the same compound?
A: 790 nm

Q: With CC(C)(C)C1=CC(=C(C#N)C=Cc2cc(C(C)(C)C)[te+]c(C(C)(C)C)c2)C=C(C(C)(C)C)[Te]1 [Dye 15] as the compound, how does the “Quantum efficiency” value ([1]; air-saturated solution) read?
A: 0.08

Q: And the “Absorption maximum λmax” value ([2]; MeOH)?
A: 790 nm

Q: What does the source list for CC(C)(C)C1=CC(=Cc2cc(CCCCO)[te+]c(CCCCO)c2)C=C(C(C)(C)C)[Se]1 [Dye 18]?
A: Quantum efficiency of singlet oxygen generation Φ(1O2) ([1]; estimated): ≥ 0.005; Absorption maximum λmax ([2]; MeOH): 690 nm
